US11213527B2, “Inhibitory effect of low molecular weight compound on cancer and fibrosis” (NATIONAL UNIVERSITY CORPORATION TOTTORI UNIVERSITY, priority 2014, dated 2022)

Tests used:
[1] = test system: squamous cell carcinoma cells (HSC2; HSC3 for IC-2); assay: Anti-tumor effect on squamous cell carcinoma cells (TetraColor ONE); assay type: cell-based; details: HSC2 (HSC3 also for IC-2); 48 hours
Procedure: HSC2 cells (a squamous cell carcinoma cell line) were cultured in a DMEM on a 10-cm cell culture dish (TPP Techno Plastic Products AG, Trasadingen, Switzerland) at 5% CO2, 37° C., and a humidity of 100%. The cells at 70-90% confluency were to be split and washed with PBS (−). Next, 300 μL of Trypsin/EDTA was added to 2 mL of PBS (−) and the cells were incubated with this solution at 37° C. for 5 min to detach the cells. Then, 5 mL of DMEM was used to recover the cells. The recovered cells were centrifuged at 1000 rpm for 3 min to remove a supernatant. The pelleted cells were suspended in DMEM and subcultured at 1:4.
First, 2.5×10^3 of HSC2 cells were seeded on each well of a 96-well plate (TPP). After 48 hours from the low-molecular-weight compound treatment, 100 μL of 10% TetraColor ONE (SEIKAGAKU CORPORATION, Tokyo, Japan) was added and the mixture was then incubated at 37° C. After that, absorbance (at a measurement wavelength of 450 nm/a control wavelength of 600 nm) was measured by a 96-well microplate reader (TECAN, Zurich, Switzerland). The same procedure was used to investigate an anti-tumor effect of IC-2 on a squamous cell carcinoma cell line HSC3 after culturing.

Wnt/β-catenin signal [2] = assay: Luciferase assay in liver stellate cells (LX-2); assay type: cell-based, human
Procedure: A human liver stellate cell line (LX-2 cells) was maintained and cultured in a DMEM containing 10% FBS. The cells used for experiments were suspended in a DMEM containing 1% FBS and plated. The cell density was at about 2.0×10^5 cell/cm^2.
A luciferase assay was used to investigate an inhibitory effect of each low-molecular-weight compound on a Wnt/β-catenin signal. The luciferase assay was conducted under conditions indicated in FIG. 40 and the following sections 9.3.1 to 9.3.2. FIG. 40 illustrates a protocol when the cells were treated with a low-molecular-weight compound+TGFβ. Substantially the same experiment was carried out when the cells were treated with a low-molecular-weight compound alone or a low-molecular-weight compound+Wnt3a. Note that TGFβ or Wnt3a was added so as to increase the intensity of a Wnt/β-catenin signal.
First, 5×Passive Lysis Buffer was diluted 5-fold with MilliQ water. The lysis buffer was added at 100 μl/well and the plate was shaken for 20 min. The lysate was frozen at −30° C. overnight.
The sample frozen a day before, LARII, a Stop&Glo buffer, and a Stop&Glo substrate (materials other than the sample were shaded) were incubated at room temperature for about 1 h. A Stop&Glo solution (49 μl of the Stop&Glo buffer and 1 μl of the Stop&Glo substrate) was prepared for the number of the samples+1. Next, 50 μl of the LARII was dispensed into a 3.5-ml tube. Then, 10 μl of the sample was added and the tube was set in a measurement instrument. After completion of the first assay, 50 μl of the Stop&Glo solution was added and the tube was again set in the measurement instrument for another assay.

unsorted HuH7 cells = assay: Mice transplanted with unsorted HuH7 cells; assay type: in vivo; details: unsorted HuH7 cells instead of CD44-positive HuH7 cells
Excerpt: The effect of treating malignant tumors may be evaluated by imaging, endoscopic examination, biopsy, or detection of a malignant tumor marker. In addition, the effect of treating cancer stem cells may be evaluated by imaging, endoscopic examination, biopsy, or detection of a cancer stem cell marker. In addition, the effect of treating fibrosis may be evaluated by imaging, endoscopic examination, biopsy, or detection of a fibrosis marker. […] At this time, the level of a marker after administration of a therapeutic drug may be 0.7, 0.5, 0.3, or 0.1 times the level before the administration (or of a control). […] At this time, the number of marker-positive cells after administration of the therapeutic drug may be 0.7, 0.5, 0.3, or 0.1 times the number before the administration (or of a control). Note that in Example 2 below, the therapeutic effect was evaluated by using mice in which CD44-positive HuH7 cells had been subcutaneously transplanted. The present inventors also replaced the above CD44-positive HuH7 cells by unsorted HuH7 cells.

Wnt/β-catenin signal [3] = assay: Dual-luciferase reporter assay in HSC2 cells; assay type: cell-based; details: 48 hours
Procedure: (§1) First, 5×10^4 of HSC2 cells were seeded on each well of a 24-well plate. After 24 hours, transfection was carried out by using 1 μL of lipofectamine 2000 (Invitrogen, Life Technologies Corp., Carlsbad, Calif.), 50 ng of pTCF4-CMVpro-FLuc, and 2.5 ng of pCMVpro-Rluc. After 48 hours from the low-molecular-weight compound treatment, 100 μL of 20% Passive Lysis Buffer (PROMEGA, Wisconsin, USA) was added to each well of the 24-well plate. The plate was shaken at ordinary temperature for 15 min and was then allowed to stand overnight at −30° C. On the following day, a Dual-Luciferase (a registered trademark) Reporter Assay System (PROMEGA) was used, and luciferase activity was then measured by using a MiniLumat LB 9506 (Berthold Technologies, Bad Wildbad, German).

Wnt/β-catenin signal [4] = details: induces differentiation of the mesenchymal stem cell into hepatocytes; cited from earlier work
Wnt/β-catenin signal [5] = assay: Dual-luciferase reporter assay in colon cancer cells; assay type: cell-based; details: DLD-1, HCT 116, colo 205; 48 hours
Procedure: as §1, with “First, 3.34×10^4 colon cancer” for “First, 5×10^4 of HSC2”, “cells (DLD-1, HCT 116, or colo 205)” for “cells”, “of a” for “of the”

## O=C1[C@H](Cc2ccccc2)N2C(=O)CCN(C(=O)NCc3ccccc3)[C@H]2CN1Cc1cccc2ccccc12 [IC-2]
[1]
  inhibitory effects on proliferation of the squamous cell carcinoma cells: exerted inhibitory effects on proliferation
Wnt/β-catenin signal [2]; compound alone, 24 hours
  inhibition of a Wnt/β-catenin signal in the LX-2 cells: resulted in inhibition
Wnt/β-catenin signal [2]; compound alone, 48 hours
  inhibition of a Wnt/β-catenin signal in the LX-2 cells: resulted in inhibition
Wnt/β-catenin signal [2]; compound+TGFβ, 24 hours
  inhibition of a Wnt/β-catenin signal in the LX-2 cells: resulted in inhibition
Wnt/β-catenin signal [2]; compound+TGFβ, 48 hours
  inhibition of a Wnt/β-catenin signal in the LX-2 cells: resulted in inhibition
Wnt/β-catenin signal [2]; compound+Wnt3a, 24 hours
  inhibition of a Wnt/β-catenin signal in the LX-2 cells: resulted in inhibition
Unsorted HuH7 cells
  effect of treating a malignant tumor: exhibits an effect of treating a malignant tumor
Wnt/β-catenin signal [3]
  inhibitory effect on a Wnt/β-catenin signal in the squamous cell carcinoma cells: exerted an inhibitory effect
Wnt/β-catenin signal [4]
  inhibition of a Wnt/β-catenin signal in a mesenchymal stem cell: inhibit a Wnt/β-catenin signal
Wnt/β-catenin signal [5]
  inhibitory effect on a Wnt/β-catenin signal in the colon cancer cells: exerted an inhibitory effect
